According to ChEMBL document CHEMBL1201862, “PubChem BioAssay data set” (2004):
Activity calls are given as the source filed them.

Tests used:
[1] = biological target: T1, Dual specificity protein phosphatase 3 (Homo sapiens, UniProt P51452); assay: VHR1 phosphatase inhibitors, biochemical (AID 1878)
[2] = biological target: 72 kDa type IV collagenase (Homo sapiens, UniProt P08253); assay: Dose Response validation of uHTS RPN11 inhibitor hits using a MMP-2 Fluorescence assay.; format: functional
[3] = biological target: T2, Tyrosine-protein phosphatase non-receptor type 7 (Homo sapiens, UniProt P35236); assay: redox-active compounds inhibiting HePTP phosphatase – biochemical, fluorescence, mechanism study (AID 2068); format: functional
T2 sequence (P35236 whole entry): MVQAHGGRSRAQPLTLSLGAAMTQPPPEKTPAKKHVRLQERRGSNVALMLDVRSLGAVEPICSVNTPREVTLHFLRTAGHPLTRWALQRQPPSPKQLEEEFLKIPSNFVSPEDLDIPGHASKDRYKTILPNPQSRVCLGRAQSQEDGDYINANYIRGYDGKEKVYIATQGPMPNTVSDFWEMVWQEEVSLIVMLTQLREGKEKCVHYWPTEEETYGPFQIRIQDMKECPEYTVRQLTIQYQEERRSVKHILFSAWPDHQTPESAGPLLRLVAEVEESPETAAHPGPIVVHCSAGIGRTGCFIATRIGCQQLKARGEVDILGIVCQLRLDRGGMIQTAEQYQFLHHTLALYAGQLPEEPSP

[4] = biological target: T3, Small ubiquitin-related modifier 1 (Homo sapiens, UniProt P63165); assay: SUMO1 protein interaction blockers, potency – biochemical, fluorescence polarization, uHTS hits, dose response (AID 624382); format: functional; conditions: read-out: IC50_Mean
T3 sequence (P63165 whole entry): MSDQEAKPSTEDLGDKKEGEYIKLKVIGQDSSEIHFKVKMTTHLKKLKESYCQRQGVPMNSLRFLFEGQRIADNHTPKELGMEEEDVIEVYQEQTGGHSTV

[5] = biological target: T4, Voltage-gated N-type calcium channel alpha-1B subunit/Amyloid beta A4 precursor protein-binding family A member 1 (Homo sapiens, UniProt Q00975+Q02410); format: protein assay
T4 sequence (Q00975 whole entry): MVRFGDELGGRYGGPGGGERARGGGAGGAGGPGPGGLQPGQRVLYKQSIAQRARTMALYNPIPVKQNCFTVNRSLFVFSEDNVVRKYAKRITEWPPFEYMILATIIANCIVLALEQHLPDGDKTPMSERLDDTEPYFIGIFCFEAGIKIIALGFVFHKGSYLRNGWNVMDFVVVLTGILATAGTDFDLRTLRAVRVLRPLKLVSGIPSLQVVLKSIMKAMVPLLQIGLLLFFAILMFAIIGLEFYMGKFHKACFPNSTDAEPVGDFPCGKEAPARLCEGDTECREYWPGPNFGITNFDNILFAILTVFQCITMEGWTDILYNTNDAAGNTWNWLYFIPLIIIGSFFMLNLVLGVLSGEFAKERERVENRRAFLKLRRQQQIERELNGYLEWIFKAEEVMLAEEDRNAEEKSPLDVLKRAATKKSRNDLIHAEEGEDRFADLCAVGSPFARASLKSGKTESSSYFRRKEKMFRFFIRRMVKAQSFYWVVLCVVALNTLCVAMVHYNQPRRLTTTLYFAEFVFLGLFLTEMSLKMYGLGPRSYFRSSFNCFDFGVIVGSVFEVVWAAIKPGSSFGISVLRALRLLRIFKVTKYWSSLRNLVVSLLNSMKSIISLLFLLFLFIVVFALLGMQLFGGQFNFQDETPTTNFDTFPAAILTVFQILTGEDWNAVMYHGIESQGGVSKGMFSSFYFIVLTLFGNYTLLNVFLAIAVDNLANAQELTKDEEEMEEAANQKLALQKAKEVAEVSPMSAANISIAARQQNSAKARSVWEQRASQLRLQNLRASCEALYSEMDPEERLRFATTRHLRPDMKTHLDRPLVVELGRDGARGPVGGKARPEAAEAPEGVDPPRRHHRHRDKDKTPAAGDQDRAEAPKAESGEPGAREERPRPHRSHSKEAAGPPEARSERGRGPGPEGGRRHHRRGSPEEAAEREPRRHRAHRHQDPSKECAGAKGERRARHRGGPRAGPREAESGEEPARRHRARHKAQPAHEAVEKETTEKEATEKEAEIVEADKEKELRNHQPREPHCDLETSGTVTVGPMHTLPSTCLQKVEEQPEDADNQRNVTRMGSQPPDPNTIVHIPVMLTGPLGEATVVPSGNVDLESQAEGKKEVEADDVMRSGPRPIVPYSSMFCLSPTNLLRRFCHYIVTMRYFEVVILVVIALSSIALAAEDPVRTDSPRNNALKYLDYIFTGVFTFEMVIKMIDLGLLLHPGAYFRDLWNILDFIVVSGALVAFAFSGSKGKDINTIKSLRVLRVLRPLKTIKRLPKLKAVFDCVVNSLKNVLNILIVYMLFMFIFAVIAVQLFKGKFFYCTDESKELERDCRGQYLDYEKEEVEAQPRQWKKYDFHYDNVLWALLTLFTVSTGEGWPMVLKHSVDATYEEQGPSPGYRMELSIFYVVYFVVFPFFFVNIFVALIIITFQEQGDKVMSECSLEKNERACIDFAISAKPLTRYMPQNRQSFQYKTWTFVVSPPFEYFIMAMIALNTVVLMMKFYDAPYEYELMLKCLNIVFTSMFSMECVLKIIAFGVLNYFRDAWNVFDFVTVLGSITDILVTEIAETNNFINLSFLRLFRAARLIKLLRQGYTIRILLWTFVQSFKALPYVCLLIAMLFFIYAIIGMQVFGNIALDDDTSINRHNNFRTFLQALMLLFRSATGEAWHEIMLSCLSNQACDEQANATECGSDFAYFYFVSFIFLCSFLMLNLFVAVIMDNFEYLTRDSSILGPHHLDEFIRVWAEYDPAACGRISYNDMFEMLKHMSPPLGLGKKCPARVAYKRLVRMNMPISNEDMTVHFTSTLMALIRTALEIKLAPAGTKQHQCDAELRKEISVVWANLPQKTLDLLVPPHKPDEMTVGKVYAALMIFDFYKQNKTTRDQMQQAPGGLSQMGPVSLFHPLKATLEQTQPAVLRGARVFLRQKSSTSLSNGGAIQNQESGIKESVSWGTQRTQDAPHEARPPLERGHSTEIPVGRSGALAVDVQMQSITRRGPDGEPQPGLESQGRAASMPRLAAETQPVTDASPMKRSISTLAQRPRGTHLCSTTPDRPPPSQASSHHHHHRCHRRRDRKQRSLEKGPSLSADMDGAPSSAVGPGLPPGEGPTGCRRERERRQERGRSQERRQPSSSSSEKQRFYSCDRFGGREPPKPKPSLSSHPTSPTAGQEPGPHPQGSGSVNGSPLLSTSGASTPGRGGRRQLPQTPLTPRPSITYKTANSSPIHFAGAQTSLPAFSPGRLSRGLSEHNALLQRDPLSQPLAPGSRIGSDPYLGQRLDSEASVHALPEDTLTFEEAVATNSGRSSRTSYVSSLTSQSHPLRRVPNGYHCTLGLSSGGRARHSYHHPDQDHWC
T4 sequence (Q02410 whole entry): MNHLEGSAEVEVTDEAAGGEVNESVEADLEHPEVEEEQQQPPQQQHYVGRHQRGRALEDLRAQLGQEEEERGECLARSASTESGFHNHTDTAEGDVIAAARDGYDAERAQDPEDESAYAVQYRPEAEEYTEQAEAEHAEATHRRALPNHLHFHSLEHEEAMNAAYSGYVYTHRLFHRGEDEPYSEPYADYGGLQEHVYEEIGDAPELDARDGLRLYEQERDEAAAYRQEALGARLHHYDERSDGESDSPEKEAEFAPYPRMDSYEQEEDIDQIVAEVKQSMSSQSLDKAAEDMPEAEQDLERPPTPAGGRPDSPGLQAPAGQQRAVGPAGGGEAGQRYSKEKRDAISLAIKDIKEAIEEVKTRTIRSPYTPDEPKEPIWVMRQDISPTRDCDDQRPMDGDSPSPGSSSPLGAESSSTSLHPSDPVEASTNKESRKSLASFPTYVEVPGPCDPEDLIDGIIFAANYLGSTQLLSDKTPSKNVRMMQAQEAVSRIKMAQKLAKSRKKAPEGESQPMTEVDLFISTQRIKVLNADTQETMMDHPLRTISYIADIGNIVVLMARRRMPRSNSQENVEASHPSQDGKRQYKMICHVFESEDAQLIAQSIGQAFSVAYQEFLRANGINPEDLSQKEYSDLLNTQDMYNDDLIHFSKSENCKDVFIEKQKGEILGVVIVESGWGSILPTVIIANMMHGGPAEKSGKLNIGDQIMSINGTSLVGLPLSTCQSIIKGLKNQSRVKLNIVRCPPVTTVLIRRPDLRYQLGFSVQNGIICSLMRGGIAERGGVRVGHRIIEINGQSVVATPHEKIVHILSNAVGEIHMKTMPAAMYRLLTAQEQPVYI

[6] = biological target: T5, Tyrosine-protein phosphatase non-receptor type 22 (Homo sapiens, UniProt Q9Y2R2); format: functional
T5 sequence (Q9Y2R2 whole entry): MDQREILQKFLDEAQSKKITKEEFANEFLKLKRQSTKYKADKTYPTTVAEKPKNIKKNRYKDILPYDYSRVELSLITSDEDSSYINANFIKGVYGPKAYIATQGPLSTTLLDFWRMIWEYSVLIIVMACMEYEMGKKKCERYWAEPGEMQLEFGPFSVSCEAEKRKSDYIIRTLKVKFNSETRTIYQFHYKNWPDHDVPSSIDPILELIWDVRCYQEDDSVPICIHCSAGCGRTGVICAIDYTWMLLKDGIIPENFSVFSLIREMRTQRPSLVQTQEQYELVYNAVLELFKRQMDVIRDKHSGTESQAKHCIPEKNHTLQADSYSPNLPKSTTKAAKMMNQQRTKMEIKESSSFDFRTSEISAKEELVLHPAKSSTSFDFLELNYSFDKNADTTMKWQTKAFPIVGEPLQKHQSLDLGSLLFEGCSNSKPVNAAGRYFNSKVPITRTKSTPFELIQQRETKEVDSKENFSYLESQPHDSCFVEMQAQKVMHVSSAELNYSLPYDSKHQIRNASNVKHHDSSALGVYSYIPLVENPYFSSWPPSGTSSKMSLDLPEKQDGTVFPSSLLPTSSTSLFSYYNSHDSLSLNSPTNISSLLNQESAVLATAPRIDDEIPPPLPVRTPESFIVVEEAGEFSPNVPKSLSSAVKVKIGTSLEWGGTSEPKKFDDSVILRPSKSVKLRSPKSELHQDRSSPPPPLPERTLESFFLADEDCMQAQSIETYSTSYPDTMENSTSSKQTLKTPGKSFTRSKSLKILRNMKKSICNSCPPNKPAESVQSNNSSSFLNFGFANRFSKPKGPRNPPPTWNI

[7] = biological target: T1, Dual specificity protein phosphatase 3; assay: SAR VHR1 absorbance Assay for In Vitro dose response studies. [Related pubchem assays (depositor defined):AID1654, AID1661, AID1878, AID1992, AID2004]
[8] = biological target: T5, Tyrosine-protein phosphatase non-receptor type 22; format: functional; remark: listed apart in the source
[9] = biological target: T6, Dual specificity protein phosphatase 6 (Rattus norvegicus, UniProt Q64346); format: functional;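 note: confirmatory in vitro dose-response testing of MKP-3 inhibition; recombinant His-tagged MKP-3 made in E. coli BL21 with OMFP substrate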
T6 sequence (Q64346 whole entry): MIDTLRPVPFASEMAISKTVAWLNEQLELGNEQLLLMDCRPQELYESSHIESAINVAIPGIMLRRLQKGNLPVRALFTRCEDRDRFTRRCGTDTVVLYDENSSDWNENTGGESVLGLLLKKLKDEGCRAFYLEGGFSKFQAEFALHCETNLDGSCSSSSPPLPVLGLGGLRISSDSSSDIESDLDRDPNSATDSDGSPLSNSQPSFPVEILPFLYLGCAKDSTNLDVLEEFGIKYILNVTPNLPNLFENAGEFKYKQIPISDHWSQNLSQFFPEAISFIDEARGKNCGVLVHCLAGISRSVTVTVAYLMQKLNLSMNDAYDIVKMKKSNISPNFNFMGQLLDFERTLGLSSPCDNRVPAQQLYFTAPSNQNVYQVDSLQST

[10] = biological target: NS3 (Hepatitis C virus, UniProt A3EZJ3); assay: PubChem AID 2173; parameters: species or system Hepacivirus hominis
Sequence of NS3 (A3EZJ3 whole entry): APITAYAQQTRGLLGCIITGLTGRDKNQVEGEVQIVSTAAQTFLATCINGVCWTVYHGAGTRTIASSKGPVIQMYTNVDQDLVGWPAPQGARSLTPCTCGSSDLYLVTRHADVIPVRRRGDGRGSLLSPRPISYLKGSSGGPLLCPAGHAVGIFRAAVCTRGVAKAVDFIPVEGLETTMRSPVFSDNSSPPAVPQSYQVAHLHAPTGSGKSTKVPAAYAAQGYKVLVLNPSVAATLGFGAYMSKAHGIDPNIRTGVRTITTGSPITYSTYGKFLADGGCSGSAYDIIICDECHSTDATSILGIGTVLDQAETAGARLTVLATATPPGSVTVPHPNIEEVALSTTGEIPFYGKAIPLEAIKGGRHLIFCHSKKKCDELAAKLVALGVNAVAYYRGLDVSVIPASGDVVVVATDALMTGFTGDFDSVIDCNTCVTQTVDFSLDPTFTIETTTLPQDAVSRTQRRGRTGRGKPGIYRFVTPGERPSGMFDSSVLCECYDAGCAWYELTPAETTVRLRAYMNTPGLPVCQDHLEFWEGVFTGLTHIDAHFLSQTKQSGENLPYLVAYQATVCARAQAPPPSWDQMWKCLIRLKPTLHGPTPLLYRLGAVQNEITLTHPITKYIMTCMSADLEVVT

[11] = biological target: Eukaryotic translation initiation factor 4E (Mus musculus, UniProt P63073); assay: blockers of eIF4G binding by eIF4E – biochemical, TR-FRET, dose response (AID 855); format: functional;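 note: potency for disrupting eIF4E binding to eIF4GI seen as loss of FRET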
[12] = biological target: T6, Dual specificity protein phosphatase 6; assay: inhibition of rat DUSP6 enzyme activity – biochemical, in vitro, primary screen (AID 425)
[13] = biological target: T2, Tyrosine-protein phosphatase non-receptor type 7; format: functional
[14] = biological target: Induced myeloid leukemia cell differentiation protein Mcl-1 (Homo sapiens, UniProt Q07820); format: functional
[15] = biological target: Prothrombin (Bos taurus, UniProt P00735); assay: thrombin protease inhibitors – biochemical, fluorescence polarization, uHTS hits, dose response (AID 602369); format: functional
[16] = biological target: T1, Dual specificity protein phosphatase 3; assay: SAR VHR1 Fluorescent Assay for In Vitro dose response studies. [Related pubchem assays (depositor defined):AID1654, AID1661, AID1878, AID1992, AID2004, AID2070, AID2085]; format: functional
[17] = biological target: T3, Small ubiquitin-related modifier 1; assay: SUMO1 protein-protein binding blockers, potency – biochemical, FRET, dose response (AID 624383); format: functional; conditions: read-out: IC50_Mean
[18] = biological target: 26S proteasome non-ATPase regulatory subunit 14 (Homo sapiens, UniProt O00487); assay: inhibition of proteasome subunit RPN11 – biochemical, fluorescence polarization, uHTS hits, confirmation (AID 602368); format: functional
[19] = biological target: T1, Dual specificity protein phosphatase 3; assay: VHR1 phosphatase inhibitors, primary screen, biochemical, absorbance, uHTS (AID 1654)
[20] = biological target: T4, Voltage-gated N-type calcium channel alpha-1B subunit/Amyloid beta A4 precursor protein-binding family A member 1; format: protein assay; remark: listed apart in the source
[21] = biological target: T1, Dual specificity protein phosphatase 3; assay: SAR VHR1 Fluorescent Assay for In Vitro dose response studies Set 2. [Related pubchem assays (depositor defined):AID1654, AID1661, AID1878]; format: functional
[22] = biological target: T7, Kappa-type opioid receptor (Homo sapiens, UniProt P41145); assay: SAR analysis of small molecule agonists of the kappa opioid receptor via a luminescent beta-arrestin assay - Set 3. [Related pubchem assays (depositor defined):AID1777, AID1785, AID1786, AID1966, AID2133, AID2136, AID2284, AID2500]; format: functional
T7 sequence (P41145 whole entry): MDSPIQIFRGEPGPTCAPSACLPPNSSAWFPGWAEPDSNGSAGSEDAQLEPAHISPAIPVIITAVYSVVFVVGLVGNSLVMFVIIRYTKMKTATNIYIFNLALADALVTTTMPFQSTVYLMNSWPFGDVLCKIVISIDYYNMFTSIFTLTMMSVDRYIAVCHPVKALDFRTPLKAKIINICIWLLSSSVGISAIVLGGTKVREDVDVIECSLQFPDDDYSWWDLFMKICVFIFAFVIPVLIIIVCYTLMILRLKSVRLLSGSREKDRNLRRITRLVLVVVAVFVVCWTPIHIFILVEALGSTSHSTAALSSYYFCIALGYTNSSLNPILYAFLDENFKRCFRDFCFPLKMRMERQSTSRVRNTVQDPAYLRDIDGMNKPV

[23] = biological target: Mu-type opioid receptor (Homo sapiens, UniProt P35372); assay: HTS Image-Based Screen for Agonists of the MOR Receptor. [Related pubchem assays (depositor defined):AID1777, AID1785, AID1786, AID2133]; format: functional;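 note: imaging of beta-arrestin GFP recruitment into spots after receptor activation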
[24] = biological target: T7, Kappa-type opioid receptor; format: functional
[25] = biological target: T8, Delta-type opioid receptor (Homo sapiens, UniProt P41143); assay: HTS Image-Based Screen for Antagonists of the DOR Receptor. [Related pubchem assays (depositor defined):AID1777, AID1785, AID1786, AID2133]; format: functional
T8 sequence (P41143 whole entry): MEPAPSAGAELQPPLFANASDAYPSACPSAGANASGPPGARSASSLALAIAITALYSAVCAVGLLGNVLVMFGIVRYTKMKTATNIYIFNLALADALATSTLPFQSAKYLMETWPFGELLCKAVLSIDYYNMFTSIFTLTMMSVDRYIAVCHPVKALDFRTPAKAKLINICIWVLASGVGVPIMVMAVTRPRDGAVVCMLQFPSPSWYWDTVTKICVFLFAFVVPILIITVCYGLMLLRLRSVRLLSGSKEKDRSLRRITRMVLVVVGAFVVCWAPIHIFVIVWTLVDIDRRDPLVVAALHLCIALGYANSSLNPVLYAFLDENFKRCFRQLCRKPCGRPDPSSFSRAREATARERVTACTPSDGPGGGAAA

[26] = biological target: T7, Kappa-type opioid receptor; format: functional; remark: listed apart in the source
[27] = biological target: Beta-galactosidase (Escherichia coli, UniProt Q8VNN2); format: functional
[28] = biological target: T8, Delta-type opioid receptor; assay: HTS Image-Based Screen for Agonists of the DOR Receptor. [Related pubchem assays (depositor defined):AID1777, AID1786, AID2133]; format: functional

T1 sequence (P51452 whole entry): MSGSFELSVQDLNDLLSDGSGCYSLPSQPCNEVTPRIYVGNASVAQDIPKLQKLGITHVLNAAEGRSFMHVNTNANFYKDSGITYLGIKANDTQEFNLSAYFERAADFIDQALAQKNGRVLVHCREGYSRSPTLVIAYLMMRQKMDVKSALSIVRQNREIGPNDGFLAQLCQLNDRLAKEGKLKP

CCOC(=O)c1sc2nc3c(SCCC(=O)O)cc(C(=O)c4cc(OC)ccc4O)cn3c(=O)c2c1C
101 µM (not active): IC50 [12]
inactive: IC50 [1] < 1.23 µM | IC50 [4] > 66.6 µM | IC50 [11] 50 µM
active: IC50 [2] 1.04 µM | IC50 [3] 0.209 µM | IC50 [5] 8.15 µM | IC50 [6] 7.26 µM | IC50 [7] 1.29 µM | IC50 [8] 2.02 µM | IC50 [9] 59.5 µM | IC50 [10] 2.58 µM | IC50 [13] 1.68 µM | IC50 [14] 1.24 µM | IC50 [15] 72.5 µM | IC50 [16] 0.48 µM | IC50 [17] 5.54 µM | IC50 [18] 8.13 µM | IC50 [19] 4.87 µM | IC50 [20] 36.2 µM | IC50 [21] < 0.195 µM

c1ccc(CSc2nnc(-c3ccncc3)n2Cc2ccco2)cc1
inactive: EC50 [22] > 20 µM

COc1ccc(S(=O)(=O)N(CC(=O)Nc2ccc(S(=O)(=O)N3CCOCC3)cc2)c2ccccc2)cc1
inactive: EC50 [23] > 32 µM | IC50 [25] > 32 µM | EC50 [27] > 31.5 µM | EC50 [28] > 32 µM
active: IC50 [24] 2.82 µM
4.04 µM: IC50 [26]
